Experimental data published in PubChem BioAssay AID1671416.

Target: Proto-oncogene tyrosine-protein kinase Src (Homo sapiens) (UniProt P12931)
Test: PubChem AID 1671416
Details: Z'-LYTE FRET kinase activity, recombinant SRC

Proto-oncogene tyrosine-protein kinase Src (Homo sapiens), sequence (P12931 whole entry, looked up): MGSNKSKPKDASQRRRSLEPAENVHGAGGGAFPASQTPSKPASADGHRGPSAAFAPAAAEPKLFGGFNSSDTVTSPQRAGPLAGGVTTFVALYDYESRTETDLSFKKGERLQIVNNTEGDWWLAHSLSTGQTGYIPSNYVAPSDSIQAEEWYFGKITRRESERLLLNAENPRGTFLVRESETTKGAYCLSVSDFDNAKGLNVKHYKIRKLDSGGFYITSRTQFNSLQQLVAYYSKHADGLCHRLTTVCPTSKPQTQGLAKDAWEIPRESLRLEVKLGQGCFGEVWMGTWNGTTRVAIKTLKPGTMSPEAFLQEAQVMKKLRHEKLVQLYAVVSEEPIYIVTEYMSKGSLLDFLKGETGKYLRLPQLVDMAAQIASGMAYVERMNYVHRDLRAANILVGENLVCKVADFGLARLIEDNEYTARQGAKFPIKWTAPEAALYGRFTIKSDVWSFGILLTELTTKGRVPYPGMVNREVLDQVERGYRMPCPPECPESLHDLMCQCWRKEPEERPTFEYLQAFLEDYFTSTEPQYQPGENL

`COc1cc2ncnc(Nc3cccc(Cl)c3)c2cc1OC` gave an IC50 of 2450 nM.
